The assay addresses T1, PR-A (Homo sapiens, UniProt P06401).
T1 construct: expressed in transfected cells
T1 sequence (P06401 1-769 isoform P06401-2): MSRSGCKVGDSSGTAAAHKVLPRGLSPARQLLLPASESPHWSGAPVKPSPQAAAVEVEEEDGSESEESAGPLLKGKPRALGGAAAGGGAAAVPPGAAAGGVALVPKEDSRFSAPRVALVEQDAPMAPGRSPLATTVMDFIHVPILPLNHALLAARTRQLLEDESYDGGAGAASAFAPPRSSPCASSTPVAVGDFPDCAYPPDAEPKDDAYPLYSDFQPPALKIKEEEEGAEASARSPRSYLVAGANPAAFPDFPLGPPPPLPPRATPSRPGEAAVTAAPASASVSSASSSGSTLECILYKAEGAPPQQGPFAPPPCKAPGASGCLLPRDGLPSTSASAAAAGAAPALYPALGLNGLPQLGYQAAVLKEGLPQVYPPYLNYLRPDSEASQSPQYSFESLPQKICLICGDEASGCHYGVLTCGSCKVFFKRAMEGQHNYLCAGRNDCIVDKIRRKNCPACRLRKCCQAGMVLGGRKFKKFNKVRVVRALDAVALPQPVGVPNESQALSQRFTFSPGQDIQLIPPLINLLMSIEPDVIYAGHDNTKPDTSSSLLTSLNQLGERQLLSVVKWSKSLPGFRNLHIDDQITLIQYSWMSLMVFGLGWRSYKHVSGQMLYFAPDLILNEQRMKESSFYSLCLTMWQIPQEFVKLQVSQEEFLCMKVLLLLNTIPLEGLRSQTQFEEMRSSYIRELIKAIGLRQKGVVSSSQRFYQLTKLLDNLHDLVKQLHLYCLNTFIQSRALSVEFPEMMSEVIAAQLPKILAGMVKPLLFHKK
The assay is described as follows: Transactivation test on antagonistic activity at PR-A. Format: cell-based. Particulars: for IC50: antagonism at PR-A; for Emax: read-out: Efficacy (antagonism at PR-A) [%]. As for the experimental part:
The transactivation assay is carried out as described in WO 02/054064.

As a reminder, the IC50 is the concentration at which inhibition is half-maximal. Higher therefore signals lower potency. As for `CC(=O)c1ccc(-c2ccccc2CC(O)(C(=O)Nc2ccc(C#N)c(Cl)c2)C2CCCCC2)cc1` (single isomer, unassigned) [Example 19a, rac-3-(4′-Acetylbiphenyl-2-yl)-N-(3-chloro-4-cyanophenyl)-2-cyclohexyl-2-hydroxy-propionamide], the IC50 worked out at 6.26 nM and the Emax came to 108%.

As to `N#Cc1ccc(NC(=O)C(O)(Cc2ccccc2)C2CCN(C(=O)c3ccccc3)CC2)cc1C(F)(F)F` (single isomer, unassigned) [Example 101a, 2-(1-Benzoylpiperidin-4-yl)-N-(4-cyano-3-trifluoromethylphenyl)-2-hydroxy-3-phenylpropionamide], half-maximal inhibition (IC50) required 14.7 nM and the Emax came out at 103%.

`CS(=O)(=O)N1CCC(C(O)(Cc2ccccc2)C(=O)Nc2ccc(C#N)c(C(F)(F)F)c2)CC1` (single isomer, unassigned) [Example 103, N-(4-Cyano-3-trifluoromethylphenyl)-2-hydroxy-2-(1-methanesulfonyl-piperidin-4-yl)-3-phenylpropionamide]: inhibition was half-maximal at 48.8 nM (IC50) and the Emax is 98.5%.

As for `N#Cc1ccc(NC(=O)C(O)(Cc2ccccc2)C2CCN(C(=O)C3CC3)CC2)cc1C(F)(F)F` (single isomer, unassigned) [Example 108, N-(4-Cyano-3-trifluoromethylphenyl)-2-(1-cyclopropanecarbonylpiperidin-4-yl)-2-hydroxy-3-phenylpropion amide], the IC50 was found to be 36.1 nM and the Emax was 96%.

On to `N#Cc1ccc(NC(=O)C(O)(Cc2ccccc2)C2CCN(S(=O)(=O)c3cccc(Cl)c3)CC2)cc1C(F)(F)F` (single isomer, unassigned) [Example 111, 2-[1-(3-Chlorobenzenesulfonyl)-piperidin-4-yl]-N-(4-cyano-3-trifluoro-methylphenyl)-2-hydroxy-3-phenyl-propionamide], for which the 50% inhibitory concentration (IC50) was determined as 4.17 nM and the Emax is 103%.

Regarding `N#Cc1ccc(NC(=O)C(O)(Cc2ccccc2)C2CCN(C(=O)c3ccno3)CC2)cc1C(F)(F)F` (single isomer, unassigned) [Example 113, N-(4-Cyano-3-trifluoromethylphenyl)-2-hydroxy-2-[1-(isoxazole-5-carbonyl)piperidin-4-yl]-3-phenyl-propionamide], the 50% inhibitory concentration (IC50) came out at 21.7 nM and the Emax came to 97.9%.

For `CNC(=O)c1cccc(-c2cccc(CC(O)(C(=O)Nc3ccc(C#N)c(C(F)(F)F)c3)C3CCN(C(=O)c4ccccc4)CC3)c2)c1` (single isomer, unassigned) [Example 159, N-Methyl-3′-[2-(1-benzoylpiperidin-4-yl)-2-(4-cyano-3-trifluoromethylphenyl-carbamoyl)-2-hydroxyethyl]biphenyl-3-carboxamide], the IC50 is 15.9 nM and the Emax is 96.2%.

For `N#Cc1ccc(NC(=O)C(O)(Cc2cccc(-c3cccc(C(N)=O)c3)c2)C2CCN(S(=O)(=O)c3ccc(F)cc3)CC2)cc1C(F)(F)F` (single isomer, unassigned) [Example 172, 3′-{2-(4-Cyano-3-trifluoromethyl-phenylcarbamoyl)-2-[1-(4-fluoro-benzenesulfonyl)piperidin-4-yl]-2-hydroxyethyl}biphenyl-3-carboxamide], inhibition was half-maximal at 1.2 nM (IC50) and the Emax is 101%.

For the compound `N#Cc1ccc(NC(=O)C(O)(Cc2cccc(O)c2)C2CCCCC2)cc1C(F)(F)F` (single isomer, unassigned) [Example 200b, N-(4-Cyano-3-trifluoromethylphenyl)-2-cyclohexyl-2-hydroxy-3-(3-hydroxy-phenyl)propionamide], inhibition was half-maximal at 5.66 nM (IC50) and the Emax is 98.5%.

As to `CNS(=O)(=O)c1ccc(-c2cccc(C[C@](O)(C(=O)Nc3ccc(C#N)c(C(F)(F)F)c3)C3CCCCC3)c2)cc1` (stereo in doubt) [Example 63, N-(4-Cyano-3-trifluoromethylphenyl)-2-cyclohexyl-2-hydroxy-3-(4′-methyl-sulfamoylbiphenyl-3-yl)propionamide], the 50% inhibitory concentration (IC50) worked out at 26.3 nM and the Emax came out at 104%.

For the origin of these results see US20090270381A1, “Non-steroidal progesterone receptor modulators” (priority 2007, published 2009).
